Results: patent US20020037885A1, “Therapeutic compounds” (priority 1999, published 2002)
Where two headings read alike, the source gives them in different places.

Experiments:
[1] = system: marble burying behaviour in mice; assay: Mouse Marble Burying Assay (BUR); assay type: in vivo; details: for ED50: Mus musculus, sc
Description: This assay was carried out essentially according to the procedure described by Treit et al. (1981) Pharmacol Biochem Behav; 15; 619-626.
The results are presented as BUR ED50 (sc). This is the effective dose causing 50% inhibition of burying compared to control mice.

[2] = effective dose causing 50% inhibition of burying compared to control mice
[3] = Table 2, read-out: BUR sc ED50(mg/kg)
[4] = effective dose causing 50% inhibition of burying compared to control mice, read-out: BUR ED50 (SC)

| Compound | melting point [°C] | also measured |
| --- | --- | --- |
| C=CCC(N)c1ccccc1-c1nc2ccccc2s1.Cl (centres unmarked) | 240 to 242 | – |
| C=CCNCc1ccccc1-c1noc2ccccc12.Cl | 176 | – |
| C=CC[C@H](N)c1ccc(F)cc1-c1noc2ccccc12.O=C(O)/C=C/C(=O)O | 97 to 108 | – |
| c1ccc(C2CCCN2)c(-c2noc3ccccc23)c1 (centres unmarked) [Example 36(12), 2-[2-(1,2-benzisoxazol-3-yl)-phenyl]-pyrrolidine] | 253 to 261 | – |
| C=CCC(N)c1ccccc1-c1cccs1.O=C(O)/C=C/C(=O)O (centres unmarked) | 196 to 197 | – |
| c1ccc(-c2noc3ccccc23)c(CNCc2ccccc2-c2noc3ccccc23)c1 [Example 22, 2-(1,2-Benzisoxazol-3-yl)-N-[[2-(1,2-benzisoxazol-3-yl)phenyl]methyl]-benzenemethanamine] | 138 | – |
| C=CCC(N)c1cc(-c2noc3ccccc23)cs1.O=C(O)/C=C/C(=O)O (centres unmarked) | 161 to 164 | – |
| C=CCC(N)c1ccccc1Cc1ccccc1OC.O=C(O)/C=C/C(=O)O (centres unmarked) | 172 to 174 | – |
| C=CCC(N)c1ccc(-c2noc3ccccc23)s1.O=C(O)/C=C/C(=O)O (centres unmarked) | 182 to 189 | – |
| C=CCC(N)c1ccccc1-c1coc2ccccc12.Cl (centres unmarked) | 160 to 165 | – |
| C=CCC(N)c1ccccc1-c1ccccc1OC.Cl (centres unmarked) | 236 to 240 | – |
| Cl.Cl.c1cncc(CNCc2ccccc2-c2noc3ccccc23)c1 | 154 | – |
| C=CCC(N)c1ccccc1-c1cc(C)on1.O=C(O)/C=C\C(=O)O (centres unmarked) | 130 to 138 | – |
| C=CCC(N)c1ccccc1-c1noc2cc(F)ccc12.Cl (centres unmarked) | 192 to 195 | – |
| C=CCC(N)c1ccccc1-c1ccoc1.O=C(O)/C=C/C(=O)O (centres unmarked) | 183 to 185 | – |
| CN(C)Cc1ccccc1-c1noc2ccccc12.Cl | 190 | – |
| Cl.NCc1ccccc1-c1noc2ccccc12 | 233 | – |
| C=CC[C@@H](N)c1cc(F)ccc1-c1noc2ccccc12.O=C(O)/C=C/C(=O)O | 171 to 173 | – |
| C#CCC(N)c1ccccc1-c1noc2ccccc12.O=C(O)/C=C/C(=O)O (centres unmarked) [Example 12(5)] | 165 to 170 | – |
| C=CCC(N)c1ccccc1-c1cc(F)ccc1C.O=C(O)/C=C/C(=O)O (centres unmarked) | 190 to 192 | – |
| C=CCC(N)c1cc(F)ccc1-c1noc2ccccc12.O=C(O)/C=C/C(=O)O (centres unmarked) | 176 to 180 | – |
| C#CCC(N)c1ccccc1-c1noc2cc(Cl)ccc12.C#CCC(N)c1ccccc1-c1noc2cc(Cl)ccc12.O=C(O)/C=C/C(=O)O (single isomer, unassigned; (-)) [13(5), (−)-2-(6-chloro-1,2-benzisoxazol-3-yl)-α-2-propynyl-benzenemethanamine (E)-butenedioate (2:1 salt)] | – | BUR ED50 (SC) [1, 2]: 0.4 mg/kg |
| C=CCC(N)c1ccccc1-c1cccc2ccccc12.Cl (stereo not drawn) [15 (6), 2-(napth-1-yl)-α-2-propenyl-benzenemethanamine hydrochloride] | – | BUR sc ED50(mg/kg) ([1]; Table 2): 11.6 mg/kg |
| C=CCC(N)c1ccccc1-c1ccccc1F.O=C(O)/C=C/C(=O)O (centres unmarked) | 225 to 226 | – |
| COc1ccccc1CNCc1ccccc1-c1noc2ccccc12.O=C(O)C(=O)O | 184 | – |
| C=CCC(N)c1ccccc1-c1nccs1.O=C(O)/C=C/C(=O)O (stereo not drawn) [16 (4), 2-(thiazol-2-yl)-α-2-propenyl-benzenemethanamine (E)-butenedioate] | 156 to 161 | ED50 [1, 3]: 9 mg/kg |

| Compound | melting point [°C] | also measured |
| --- | --- | --- |
| C=CC[C@@H](N)c1ccccc1-c1noc2cc(F)ccc12.Cl | 148 to 150 | – |
| C=CCC(N)c1ccccc1-c1ccccc1Cl.O=C(O)/C=C/C(=O)O (centres unmarked) | 189 to 191 | – |
| C=CCC(N)c1ccccc1-c1ccc(C)cc1F.O=C(O)/C=C/C(=O)O (centres unmarked) | 209 to 211 | – |
| C=CCC(N)c1ccccc1-c1noc2cnccc12.O=C(O)/C=C/C(=O)O (stereo not drawn) [16 (6), 2-(isoxazolo[5,4-c]pyridin-3-yl)-α-2-propenyl-benzenemethanamine (E)-butenedioate] | 183 to 189 | ED50 [1, 3]: 3.8 mg/kg |
| CCCCC(N)c1ccccc1-c1noc2cc(Cl)ccc12.Cl (centres unmarked) | 209 to 214 | – |
| C=CCC(N)c1ccccc1-c1ccc(Cl)cc1F.O=C(O)/C=C/C(=O)O (stereo not drawn) [15 (37), 2-(4-chloro-2-fluorophenyl)-α-2-propenyl-benzenemethanamine (E)-butenedioate] | 213 to 215 | ED50 [1, 3]: 9 mg/kg |
| C=CCC(N)c1ccccc1-c1nc2ccccc2o1.O=C(O)/C=C/C(=O)O (centres unmarked) | 202 to 204 | – |
| C#CCC(N)c1ccccc1-c1noc2cc(Cl)ccc12.Cl (centres unmarked) | 209 to 214 | – |
| C=CCC(N)c1ccccc1N1C=CC=NC1.O=C(O)/C=C/C(=O)O (centres unmarked) | 75 to 77 | – |
| CC(C)=CCC(N)c1ccccc1-c1noc2ccccc12.O=C(O)/C=C\C(=O)O (centres unmarked) | 132 to 135 | – |
| C=CCC(N)c1ccccc1-c1ccon1.O=C(O)/C=C/C(=O)O (centres unmarked) | 150 to 175 | – |
| C=CCC(N)C1(c2noc3ccccc23)CC=CS1.O=C(O)/C=C/C(=O)O (centres unmarked) | 173 to 178 | – |
| C=CCC(N)c1ccccc1-c1cc2ccccc2o1.Cl (centres unmarked) | 225 to 227 | – |
| C=CCC(N)c1ccccc1-c1csc2ccccc12.O=C(O)/C=C\C(=O)O (centres unmarked) | 185 to 187 | – |
| C=CCC(N)c1cc(F)ccc1-c1noc2cc(Cl)ccc12.O=C(O)/C=C\C(=O)O (centres unmarked) | 162 to 164 | – |
| C=CC[C@H](N)c1ccccc1-c1noc2cc(F)ccc12.Cl | 166 to 174 | – |
| C=CCC(N)c1ccccc1-c1cc2cc(F)ccc2s1.Cl (centres unmarked) | 104 to 106 | – |
| C=CCC(N)c1ccccc1-c1ccc(F)cc1.O=C(O)/C=C/C(=O)O (centres unmarked) | 201 to 203 | – |
| C=CCC(N)c1ccccc1-c1cc(Cl)ccc1C.O=C(O)/C=C/C(=O)O (centres unmarked) | 179 to 184 | – |
| c1ccc(CNC(Cc2ccccc2)c2ccccc2-c2noc3ccccc23)cc1 (stereo not drawn) [Example 16(2), α-[2-(1,2-benzisoxazol-3-yl)phenyl]-N-benzyl-benzeneethanamine] | 153 | – |
| C=CCC(N)c1ccccc1-c1cc2ccccc2s1.Cl (centres unmarked) | 106 to 108 | – |
| C=C(C)CC(N)c1ccccc1-c1noc2ccccc12.Cl (centres unmarked) | 170 to 200 | – |
| Cl.NC(Cc1ccc(F)cc1)c1ccccc1-c1noc2ccccc12 (stereo not drawn) [Example 36, 2-(1,2-Benzisoxazol-3-yl)-α-(4-fluorobenzyl)-benzenemethanamine Hydrochloride.] | – | BUR ED50 (SC) [1, 2]: 2.8 mg/kg |
| C=CCC(N)c1cccc(-c2noc3ccccc23)c1.O=C(O)/C=C\C(=O)O (centres unmarked) | 148 to 150 | – |
| C=CCC(N)c1ccccc1-c1ccc(Cl)c(F)c1.O=C(O)/C=C/C(=O)O (centres unmarked) | 192 to 194 | – |
| C=CC[C@@H](N)c1ccc(F)cc1-c1noc2ccccc12.O=C(O)/C=C/C(=O)O | 104 to 109 | – |

| Compound | melting point [°C] | also measured |
| --- | --- | --- |
| C=CCC(N)c1ccccc1-c1cnc2ccccc2c1.O=C(O)/C=C/C(=O)O (centres unmarked) | 194 to 197 | – |
| C=CCC(N)c1cc(F)ccc1-c1noc2ccc(F)cc12.O=C(O)/C=C/C(=O)O (centres unmarked) | 168 to 173 | – |
| NC(CCCC(F)(F)F)c1ccccc1-c1noc2ccccc12.O=C(O)/C=C/C(=O)O (centres unmarked) | 203 to 210 | – |
| C=CCC(N)c1ccccc1-c1cc2cc(Cl)ccc2o1.Cl (centres unmarked) | 226 to 228 | – |
| C=CCC(N)c1ccccc1-c1ccc(C)cc1.O=C(O)/C=C/C(=O)O (centres unmarked) | 198 to 200 | – |
| C=CCC(N)c1ccccc1-c1ccc(-c2ccccc2)c(F)c1.O=C(O)/C=C/C(=O)O (centres unmarked) | 205 to 208 | – |
| Cl.NC(CC1CC1)c1ccccc1-c1noc2ccccc12 (stereo not drawn) [36(6), 2-(1,2-benzisoxazol-3-yl)-α-(cyclopropylmethyl)-benzenemethanamine hydrochloride] | – | ED50 [1, 4]: 1.5 mg/kg |
| Cl.NC(c1ccccc1-c1noc2ccccc12)C1CC=CCC1 (stereo not drawn) [Example 37, 2-(1,2-Benzisoxazol-3-yl)-α-(3-cyclohexenyl)-benzenemethanamine Hydrochloride] | – | ED50 [1, 4]: 3.1 mg/kg |
| C=CCC(N)c1ccc(F)cc1-c1noc2ccc(F)cc12.O=C(O)/C=C/C(=O)O (centres unmarked) | 164 to 169 | – |
| C1=CCC(c2ccccc2-c2noc3ccccc23)NC1 (centres unmarked) [Example 36(11), 2-[2-(1,2-benzisoxazol-3-yl)-phenyl]-1,2,3,6-tetrahydropyridine] | 242 to 268 | – |
| CC(C)CC(N)c1ccccc1-c1noc2cc(F)ccc12.O=C(O)/C=C/C(=O)O (centres unmarked) | 174 to 184 | – |
| C=CCC(N)c1ccccc1-c1noc2cc(C(F)(F)F)ccc12.O=C(O)/C=C/C(=O)O (centres unmarked) | 179 to 186 | – |
| C=CCC(N)c1oc2ccccc2c1-c1noc2ccccc12.O=C(O)/C=C/C(=O)O (centres unmarked) | 210 to 216 | – |
| C=CCC(N)c1ccccc1-c1cccc(Cl)c1C.O=C(O)/C=C/C(=O)O (centres unmarked) | 192 to 196 | – |
| C=CCC(N)c1ccccc1-c1cc(-c2ccccc2)on1.O=C(O)/C=C/C(=O)O (centres unmarked) | 165 to 180 | – |
| C=CCC(N)c1cc(Cl)ccc1-c1noc2ccccc12.O=C(O)/C=C/C(=O)O (centres unmarked) | 174 to 177 | – |
| CNC(Cc1ccccc1)c1ccccc1-c1noc2ccccc12.Cl (centres unmarked) | 175 | – |
| C#CCC(N)c1ccccc1-c1noc2ccccc12.O=C(O)/C=C/C(=O)O (centres unmarked) [Example 13(4)] | 161 to 169 | – |
| C=CCC(N)c1ccccc1Cc1ccccc1.O=C(O)/C=C/C(=O)O (centres unmarked) | 181 to 183 | – |
| CCCC(N)c1ccccc1-c1noc2ccccc12.Cl (centres unmarked) | 118 to 126 | – |
| C=CCC(N)C1(c2noc3ccccc23)CC=CO1.O=C(O)/C=C/C(=O)O (centres unmarked) | 158 to 165 | – |
| CNCc1ccccc1-c1noc2ccccc12.Cl | 230 | – |
| C=CCC(N)c1ccccc1Cc1cccc(OC)c1.O=C(O)/C=C/C(=O)O (centres unmarked) | 163 to 165 | – |
| C#CCC(N)c1ccccc1-c1noc2ccccc12.O=C(O)C(=O)O (centres unmarked) | > 250 | – |
| C=CCC(N)c1ccccc1-c1ccc(C)c(F)c1.O=C(O)/C=C/C(=O)O (centres unmarked) | 194 to 196 | – |
